From ChEMBL document CHEMBL4152370, “Identification of N-(5-(phenoxymethyl)-1,3,4-thiadiazol-2-yl)acetamide derivatives as novel protein tyrosine phosphatase epsilon inhibitors exhibiting anti-osteoclastic activity” (Bioorg Med Chem, 2018)
Active and inactive are the calls of the source. The rule behind the calls is not given here.

Experiments:
[1] = target: T1, Receptor-type tyrosine-protein phosphatase epsilon (Homo sapiens, UniProt P23469); test: Inhibition of recombinant human cytosolic PTPepsilon expressed in Escherichia coli BL21 (DE3) using E527-P-Q-pY530-Q-P-G-E-N-L536 as substrate after 60 mins by malachite green assay
T1 sequence (P23469 whole entry): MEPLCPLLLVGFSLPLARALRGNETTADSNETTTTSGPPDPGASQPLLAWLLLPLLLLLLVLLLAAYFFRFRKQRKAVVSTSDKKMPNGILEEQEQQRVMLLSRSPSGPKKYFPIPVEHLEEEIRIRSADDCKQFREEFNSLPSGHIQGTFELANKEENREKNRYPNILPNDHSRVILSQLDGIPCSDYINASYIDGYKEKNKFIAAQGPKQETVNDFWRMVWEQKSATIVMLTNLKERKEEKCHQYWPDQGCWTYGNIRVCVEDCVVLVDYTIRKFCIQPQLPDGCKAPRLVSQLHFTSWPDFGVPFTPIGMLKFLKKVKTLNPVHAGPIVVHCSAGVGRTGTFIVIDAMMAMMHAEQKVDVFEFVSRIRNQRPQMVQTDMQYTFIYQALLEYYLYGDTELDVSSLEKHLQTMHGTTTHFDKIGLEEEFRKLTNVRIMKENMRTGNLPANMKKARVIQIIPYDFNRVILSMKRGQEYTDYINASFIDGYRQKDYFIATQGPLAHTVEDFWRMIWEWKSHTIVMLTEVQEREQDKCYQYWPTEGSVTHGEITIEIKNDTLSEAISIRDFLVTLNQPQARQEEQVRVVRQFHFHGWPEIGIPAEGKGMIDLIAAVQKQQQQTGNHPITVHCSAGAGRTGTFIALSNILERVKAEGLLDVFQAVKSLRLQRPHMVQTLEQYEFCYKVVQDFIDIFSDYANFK

[2] = target: T1, Receptor-type tyrosine-protein phosphatase epsilon; test: Inhibition of cytosolic PTPepsilon in human monocyte-derived osteoclasts assessed as relative level of Tyr530 phosphorylated c-Src/beta actin at 17 uM after 15 mins in presence of M-CSF/RANKL by Western blot method relative to control
Osteoclast [3] = test: Effect on relative level of total c-Src/beta-actin in human monocyte-derived osteoclasts at 17 uM after 15 mins in presence of M-CSF/RANKL by Western blot method relative to control; type: cell-based; conditions: 0.25 h
[4] = target: T1, Receptor-type tyrosine-protein phosphatase epsilon; test: Inhibition of cytosolic PTPepsilon in human monocyte-derived osteoclasts assessed as disruption of podosome organization at 17 uM after 4 days in presence of M-CSF/RANKL by DAPI staining-based immunofluorescence assay
Monocyte = test: Inhibition of RANKL-induced human monocytes differentiation into osteoclasts after 4 days in presence of M-CSF by tartrate-resistant acid phosphatase staining based assay; type: functional, cell-based
Osteoclast [5] = test: Cytotoxicity against human monocyte-derived osteoclasts assessed as effect on cell viability at 2 to 17 uM by formazan-based spectrometric method

Row | SMILES | IC50 [1] | fold change (FC) [2] | fold change (FC) (Osteoclast [3]) | inhibition [4] | inhibition (Monocyte) | Activity (Osteoclast [5])
1 | Cc1ccc(NC(=O)Nc2nnc(COc3ccc(C)cc3C)s2)cc1 | 2470 nM | 1.87 | 1.12 | Active | Dose-dependent effect | Non-Toxic
2 | CCC(C)c1ccc(OCc2nnc(NC(=O)Nc3ccccc3OC)s2)cc1 (stereo not given) | 4170 nM | – | – | – | – | –
3 | COc1ccccc1OCC(=O)Nc1nnc(COc2ccccc2)s1 | 3700 nM | – | – | – | – | –

Stronger by IC50 [1], values ahead:

Row | IC50 [1] | fold change (FC) [2] | fold change (FC) (Osteoclast [3]) | inhibition [4] | inhibition (Monocyte) | SMILES | Activity (Osteoclast [5])
4 | 2010 nM | – | – | – | – | O=C(COc1ccc2c(c1)OCO2)Nc1nnc(COc2ccc(Cl)cc2)s1 | –
5 | 1860 nM | 1.57 | 1.29 | Active | Dose-dependent effect | Cc1ccc(OCc2nnc(NC(=O)Nc3ccc(F)c(Cl)c3)s2)c(C)c1 | Non-Toxic
